In ChEMBL document CHEMBL2401734, “Structures and biosynthesis of 12-membered macrocyclic depsipeptides from Streptomyces sp. ML55” (Bioorg Med Chem Lett, 2013) one finds Activity data, which are given here for two compounds.

Active and inactive are the calls of the source. The rule behind the calls is not given here.

The subject of this experiment is HT-29. The experiment is described as follows: Antiproliferative activity against human HT-29 cells after 1 to 15 hrs. In kind it is functional, cell-based.

With `CCC(C)C1OC(=O)[C@@H](NC(=O)c2cccc(N)c2O)[C@H](C)OC(=O)C(C)(C)C(=O)C(CC(C)C)OC1=O` (some centres not stated), the result was Active.
For `CCC(C)C1OC(=O)[C@@H](NC(=O)c2cccc(O)c2O)[C@H](C)OC(=O)C(C)(C)C(=O)C(CC(C)C)OC1=O` (some centres not stated), the result was Active.
